How the values were obtained:
Format in all cases: in vivo, mice
HO-1 = test: Western blotting of HO-1 in colon tissue; settings: group ES: 2.0% v/v ethanol diet + 2.5 mg sesaminol per day oral, 2 weeks; group E significantly lower than group C
From the text: Chronic consumption of an excessive amount of ethanol has been reported to increase CYP2E1 and iNOS levels and cause ethanol-induced oxidative stress in the liver and other tissues. The nuclear factor erythroid 2-related factor 2/heme oxygenase-1 (Nrf2/HO-1) system has also been reported to be widely involved in the protection of cells from oxidative damage. Therefore, the expression levels of these proteins (CYP2E1, iNOS, and HO-1) in mouse colon tissue in the four groups (groups C, S, E, and ES) were examined by western blotting (WB).
A colon tissue sample (100 mg) was homogenized in 1 mL of an M-PER mammalian protein extraction reagent (Pierce) containing a diluent of a protease inhibitor cocktail (Nacalai Tesque, Inc.), and the resulting homogenate was centrifuged at 20,000× g at 4° C. for 15 minutes. The protein concentration of the supernatant was measured with a protein assay reagent (Bio-Rad Laboratories, Inc.), and equal amounts of proteins were subjected to SDS-PAGE. Electrophoresed proteins in the gel were transferred to a PVDF membrane, and the membrane was immersed in a blocking reagent (room temperature, overnight). The primary antibody (rabbit polyclonal antibody) was then reacted. […] The band intensities were quantified with ImageJ.

Nrf2 = Nrf2 activation level in colon tissue extracts by ELISA; settings: group ES: 2.0% v/v ethanol diet + 2.5 mg sesaminol per day oral, 2 weeks; group E significantly reduced
Experimental: The Nrf2 transcription factor is a master regulator of cytoprotection and promotes HO-1 gene expression in intracellular response to oxidative stress. Thus, in terms of the decrease in the HO-1 expression level in group E, the activation level of the Nrf2 transcription factor was examined. The protein amounts in the colon tissue extracts of the groups were adjusted to be equal, and Nrf2 activation levels in the colon tissue extracts were determined by ELISA.

MCP-1 = MCP-1 expression in colon tissue (qRT-PCR, ELISA); settings: group ES: 2.0% v/v ethanol diet + 2.5 mg sesaminol per day oral, 2 weeks, vs group E; higher than group C
From the text: It has been reported that chronic consumption of an excessive amount of ethanol can induce inflammation associated with tumor formation in colon tissue. Therefore, in order to verify whether oral administration of sesaminol has a preventive effect on ethanol-induced colitis, the expression levels of inflammatory cytokines (TNF-α and IL-6) and chemokine (MCP-1) in the large intestinal lamina propria of the mice in the four groups (groups C, S, E, and ES) were examined by qRT-PCR and ELISA. The NF-κB activity in the mice in the four groups was also examined. NF-κB is a transcription factor that is involved in expression of genes regulating inflammation and is activated by exposure of immune cells to pro-inflammatory factors.
Total RNA was extracted from colon tissue samples. […]
A colon tissue sample (100 mg) was homogenized in 1 mL of an M-PER mammalian protein extraction reagent (Pierce) containing a diluent of a protease inhibitor cocktail (Nacalai Tesque, Inc.), and the resulting homogenate was centrifuged at 20,000× g at 4° C. for 15 minutes. The protein concentration of the supernatant was measured with a protein assay reagent (Bio-Rad Laboratories, Inc.), and equal amounts of proteins were used for analysis of the expression levels of TNF-α, IL-6, and MCP-1 by ELISA.

occludin = test: Western blotting of occludin in colon tissue; settings: group ES: 2.0% v/v ethanol diet + 2.5 mg sesaminol per day oral, 2 weeks, vs group E; lower than group C
From the text: (§1) Acetaldehyde, which accumulates during ethanol metabolism, is known to disrupt intestinal tight junctions (TJs) via dissociation of colonic epithelium TJ proteins (ZO-1, occludin, and claudin-1) from the cytoskeleton. […] Therefore, whether oral administration of sesaminol would affect ethanol-induced intestinal barrier dysfunction was examined by analyzing the expression levels of colonic epithelial TJ proteins and the plasma LPS level in the mice in the four groups (groups C, S, E, and ES).
WB was performed in the same manner as in Example 4 above. The following primary antibodies were used. • Anti-mouse zonula occludens-1 protein (ZO-1) rabbit polyclonal antibody • Anti-mouse occludin rabbit polyclonal antibody • Anti-mouse claudin-1 rabbit polyclonal antibody

LPS = test: Plasma LPS level (LAL assay), 2 weeks; settings: group ES: 2.0% v/v ethanol diet + 2.5 mg sesaminol per day oral, vs group E, higher than group C
From the text: as §1
The plasma LPS concentration was measured with a limulus amebocyte lysate (LAL) assay.

ZO-1 = test: Immunofluorescence staining of ZO-1 in colon tissue, 4 weeks; settings: group ES: 2.0% v/v ethanol diet + 2.5 mg sesaminol per day oral, group E significant decrease
Experimental: Next, in order to verify the longer-term effect of oral administration of sesaminol on ethanol-induced intestinal tight junction (TJ) dysfunction and leaky gut, histological analysis of colonic epithelial TJ proteins (ZO-1, Occludin, and Claudin-1) and analysis of the plasma LPS level were performed using the mice in each group (groups C, S, E, and ES) described in Example 7. Histological analysis was performed by immunofluorescence staining with anti-ZO-1, anti-Occludin, and anti-Claudin-1 antibodies, followed by observation under a fluorescence microscope. The Plasma LPS level was measured according to the method described in Example 6.

For `Oc1cc2c(cc1C1OCC3C(c4ccc5c(c4)OCO5)OCC13)OCO2` (stereo not drawn) [Sesaminol], the HO-1 expression level (HO-1) was “recovery of the expression level”, the Nrf2 activation level (Nrf2) was “recovered to a level similar to that in group C” and the “expression level of MCP-1 (mRNA by qRT-PCR, protein by ELISA)” value (MCP-1) was “significantly lower than those in group E”. The “expression level of occludin” value (occludin) was “significantly higher than those in group E”, the “plasma LPS level” value (LPS) was “significantly lower than that in group E” and the “protein level of ZO-1 in colon tissue (fluorescence microscope observation)” value (ZO-1) was “improvement in all of those levels”.

Reference: patent US20240408053A1, “ENTERITIS-SUPPRESSING COMPOSITION” (KOBE GAKUIN EDUCATIONAL FOUNDATION, priority 2021, published 2024)
